Structures are written as SMILES. Values joined by “and” are separate entries in the source; they are usually repeats but may differ in a detail not shown here. Identical values can stand only once.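 Test compounds were applied to cells in 96-well plates for 48 hours at 5 doses. GI50 marks 50% less growth. TGI denotes the concentration required for complete inhibition of growth.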 Where a SMILES comes first, the peptide text is derived from it. [ ]: non-standard residue; d: D form. The star is where a group is joined. NMeF = CN[CH](Cc1ccccc1)C(=O)O; NMeV = CN[CH](C(=O)O)C(C)C; Boc = CC(C)(C)OC(=O)*; OBn = c1ccc(CO*)cc1

These results are taken from PubChem BioAssay (NCI).

Some test systems named below: HL-60(TB) leukemia; SK-OV-3 ovarian; 786-0 renal; RXF 393 renal; NCI-H460 lung; SR leukemia; SF-539 CNS; A498 renal; SK-MEL-5 melanoma; OVCAR-3 ovarian; EKVX NSCLC; HOP-62 NSCLC; SW-620 colon; DU-145 prostate; MDA-N; BT-549 breast.
Holding throughout (experiment): growth of human tumour cells (NCI), 48 h

For `CC(=O)[O-].CC(=O)[O-].O=C(N/N=C/c1cc(Cl)cc(Cl)c1[OH2+])c1ccncc1.[Mn+2]`, the TGI with HL-60(TB) leukemia came out at 1.12 µM; in the assay on SK-OV-3 ovarian, 51.1 µM; in the assay on 786-0 renal it was 15.6 µM; in the assay on RXF 393 renal, 20.7 µM; in the assay on NCI-H460 lung, 15.8 µM; with SR leukemia, 4.4 µM. The TGI turned out to be 13.4 µM in the assay with SF-539 CNS; 41 µM in the assay on A498 renal; 11 µM in the assay with SK-MEL-5 melanoma; 0.956 µM with OVCAR-3 ovarian; 7.76 µM in the assay on EKVX NSCLC; 68 µM in the assay with HOP-62 NSCLC. The TGI in the assay on SW-620 colon came out at 8.09 µM.

`CCN(CC)C(=O)CCn1cc(F)c(=O)[nH]c1=O`: the TGI in the assay on HL-60(TB) leukemia, in the assay on 786-0 renal, with RXF 393 renal, with NCI-H460 lung, with SR leukemia and with SF-539 CNS was over 100 µM throughout. Moreover, the TGI with SK-MEL-5 melanoma, with OVCAR-3 ovarian, in the assay with EKVX NSCLC, in the assay on HOP-62 NSCLC and in the assay with SW-620 colon was over 100 µM throughout.

As for `C=C(COCO)C(C)=O`, the TGI was 5.78 µM in the assay on HL-60(TB) leukemia; over 100 µM with SK-OV-3 ovarian; 25.6 µM in the assay on 786-0 renal; over 65.8 µM with DU-145 prostate; 29.4 µM in the assay on RXF 393 renal; 48.2 µM in the assay with NCI-H460 lung. Also, the TGI turned out to be 13.6 µM with SF-539 CNS; 49 µM with A498 renal; 31.5 µM with SK-MEL-5 melanoma; 33.5 µM with MDA-N; 26.6 µM in the assay with OVCAR-3 ovarian; 46.9 µM with EKVX NSCLC. Moreover, the TGI in the assay with HOP-62 NSCLC was over 68.5 µM; in the assay on SW-620 colon, 11.1 µM.

Consider `CC(C)C(NC(=O)OC(C)(C)C)C(=O)N(C)C(Cc1ccccc1)C(=O)N(C)C(C(=O)OCc1ccccc1)C(C)C` (stereo not drawn) (Boc-Val-[NMeF]-[NMeV]-OBn; configuration not given here), for which the TGI is > 100 µM and 53.9 µM in the assay on HL-60(TB) leukemia; over 100 µM in the assay with SK-OV-3 ovarian; over 100 µM in the assay with 786-0 renal; over 100 µM in the assay with NCI-H460 lung; > 100 µM and 96.2 µM in the assay on SR leukemia; over 100 µM in the assay with SF-539 CNS. Also, the TGI was 44.6 µM in the assay with SK-MEL-5 melanoma; over 100 µM with OVCAR-3 ovarian; over 100 µM in the assay with EKVX NSCLC; over 100 µM in the assay with HOP-62 NSCLC; over 100 µM with SW-620 colon. Further, the GI50 in the assay with SF-539 CNS is 16.4 µM and 78.4 µM; in the assay with OVCAR-3 ovarian, 35.5 µM and > 100 µM.

For the compound `CC1(C)CC[C@]2(C(=O)O)CC[C@]3(C)C(=CCC4=C5C[C@H](O)[C@H](O)[C@@](C)(CO)[C@@]5(C)CC[C@]43C)[C@@H]2C1`, the TGI with HL-60(TB) leukemia was over 100 µM; in the assay with SK-OV-3 ovarian it was over 100 µM; in the assay on 786-0 renal, over 100 µM; in the assay on DU-145 prostate, over 100 µM; in the assay with NCI-H460 lung, 81.8 µM; in the assay with SR leukemia, over 100 µM. Further, the TGI is over 100 µM in the assay with SF-539 CNS; over 100 µM in the assay on A498 renal; 62.8 µM in the assay on SK-MEL-5 melanoma; over 100 µM in the assay on MDA-N; over 100 µM in the assay with OVCAR-3 ovarian; over 100 µM in the assay with EKVX NSCLC. The TGI in the assay on HOP-62 NSCLC and with SW-620 colon was over 100 µM in each case.

Turning to `C=C1CC[C@@H]2C13[C@@H]1[C@H](CC(=O)[C@@]23C)C1(C)C` (some centres undefined), the TGI in the assay with HL-60(TB) leukemia, with SK-OV-3 ovarian, in the assay with 786-0 renal, with BT-549 breast, with DU-145 prostate and in the assay on RXF 393 renal was over 100 µM throughout. Besides, the TGI with NCI-H460 lung, in the assay on SR leukemia, in the assay on SF-539 CNS, with A498 renal, with SK-MEL-5 melanoma and with OVCAR-3 ovarian was over 100 µM in each case. The TGI in the assay on HOP-62 NSCLC and in the assay on SW-620 colon was over 100 µM throughout.

For the compound `CC(Br)CN1CCOCC1` (centres undefined), the TGI is 51.8 µM with HL-60(TB) leukemia; over 100 µM in the assay on SK-OV-3 ovarian; over 100 µM in the assay on 786-0 renal; over 100 µM in the assay with BT-549 breast; over 100 µM in the assay with DU-145 prostate; over 100 µM in the assay on RXF 393 renal. In addition, the TGI in the assay on NCI-H460 lung, in the assay with SR leukemia, in the assay with SF-539 CNS, in the assay with A498 renal, in the assay on SK-MEL-5 melanoma and in the assay on OVCAR-3 ovarian was over 100 µM each time. In addition, the TGI in the assay on EKVX NSCLC, in the assay on HOP-62 NSCLC and in the assay with SW-620 colon was over 100 µM in each case.

In the case of `NS(=O)(=O)c1nnc(NS(=O)(=O)c2ccccc2[N+](=O)[O-])s1`, the TGI in the assay with HL-60(TB) leukemia, in the assay on SK-OV-3 ovarian, in the assay on 786-0 renal, with BT-549 breast, in the assay with DU-145 prostate and with RXF 393 renal was over 100 µM in each case. The TGI in the assay on NCI-H460 lung, in the assay on SR leukemia, in the assay with SF-539 CNS, in the assay with A498 renal, in the assay on SK-MEL-5 melanoma and in the assay with OVCAR-3 ovarian was over 100 µM each time. Further, the TGI in the assay on EKVX NSCLC, in the assay with HOP-62 NSCLC and in the assay with SW-620 colon was over 100 µM in each case.

Consider `CC1(C)OCC(CO)(CO)CO1`, for which the TGI in the assay with HL-60(TB) leukemia, in the assay with SK-OV-3 ovarian, in the assay with DU-145 prostate, with RXF 393 renal, with NCI-H460 lung and with SR leukemia was over 100 µM throughout. In addition, the TGI in the assay on A498 renal, with SK-MEL-5 melanoma, in the assay with MDA-N, in the assay on OVCAR-3 ovarian and in the assay with SW-620 colon was over 100 µM each time.

`O=Cc1cn(CCCCCCCCn2cc(C=O)c3ccccc32)c2ccccc12`: the TGI with HL-60(TB) leukemia, with SK-OV-3 ovarian, in the assay with DU-145 prostate, in the assay with RXF 393 renal, in the assay with NCI-H460 lung and with SR leukemia was over 10 µM throughout. Also, the TGI with SF-539 CNS is over 10 µM; in the assay on A498 renal, 3.23 µM; in the assay with SK-MEL-5 melanoma, over 10 µM; in the assay with MDA-N, over 10 µM; in the assay on OVCAR-3 ovarian, over 10 µM; in the assay on EKVX NSCLC it was over 10 µM. The TGI in the assay with HOP-62 NSCLC and in the assay with SW-620 colon was over 10 µM each time.
